Measured values reported in patent US8980226B2, “Aerosolized fosfomycin/aminoglycoside combination for the treatment of bacterial respiratory infections” (Gilead Sciences, Inc., priority 2004, dated 2015).

System: P. aeruginosa ATCC 27853
Test: MBC/MIC, broth microdilution
Type: cell-based
Settings: aminoglycoside alone
Procedure: “Minimal bactericidal concentration (MBC)” means the lowest concentration of antibiotic that results in ≧3 Log10 of bacterial killing.
The MICs of amikacin, arbekacin, dibekacin, gentamicin, kanamycin, netilimicin, neomycin, streptomycin, and tobramycin alone were determined for P. aeruginosa ATCC 27853 by the broth-microdilution method according to NCCLS standards (NCCLS, 2003). E. coli ATCC 25922 and S. aureus ATCC 29213 were used as quality control stains. Bacterial strains were streaked onto blood agar plates, and incubated at 35° C. for 18 hours. Two to three bacterial colonies from the overnight cultures were inoculated into 3 mL of sterile normal saline, vortexed briefly, and adjusted to a 0.5 McFarland standard (NCCLS, 2003). The bacterial suspension was diluted 1:100 in cation-adjusted Mueller-Hinton broth (hereafter referred to as CAMHB). Fifty microliters of bacterial inoculum (approximately 2×10^5 CFU/mL) was pipeted into individual wells of 96-well plates containing 50 μl of CAMHB (Remel, Lenexa, Kanas) supplemented with 2-fold dilutions of antibiotics ranging in concentration from 0.125 μg/mL to 128 μg/mL. The MIC was defined as the lowest concentration of antibiotic (s) that prevented visible growth after incubation at 35° C. for 18-24 hours.
The MBCs of fosfomycin, amikacin, arbekacin, dibikacin, gentamicin, kanamycin B, netilimicin, neomycin, streptomycin, or tobramycin alone for P. aeruginosa ATCC 27853, E. coli ATCC 25922, and S. aureus ATCC 29213 were determined by the broth microdilution method according to NCCLS standards (NCCLS, 1999). Bacterial strains were streaked onto blood agar plates and incubated at 35° C. for 18-24 hours. Two to three bacterial colonies from the overnight cultures were inoculated into 3 mL of sterile normal saline, vortexed briefly, and adjusted to a 0.5 McFarland standard (NCCLS, 2003). Fifty microliters of bacterial inoculum (approximately 2×10^5 CFU/mL) was pipeted into individual wells of 96-well plates containing 50 μl of CAMHB (Remel, Lenexa, Kanas) supplemented with 2-fold dilutions of antibiotics ranging in concentration from 0.125 μg/mL to 128 μg/mL. Plates were incubated at 35° C. for 18-24 hours and MIC determined as described in Example 5, Method C. The contents of wells showing no growth (MIC and above) were mixed with a pipetor and duplicate 10 μl samples spread onto blood agar plates. Culture plates were incubated at 35° C. for 18-24 hours and the number of bacterial colonies on each plate enumerated manually. Rejection values were determined by NCCLS methods which considers the final inoculum size, single or double sampling, pipetting error, and the Poisson distribution of sample responses (NCCLS, 1999). […] The MBC was defined as the ≧3 Log10 decrease in CFU/mL of the original inoculum as described by NCCLS standards (NCCLS, 1999). The MBC/MIC ratios were calculated by dividing the MBC by the MIC.

| Compound | MBC/MIC Aminoglycoside |
| --- | --- |
| gentamicin | 2 |
| CCN[C@@H]1C[C@H](N)[C@@H](O[C@H]2OC(CN)=CC[C@H]2N)[C@H](O)[C@H]1O[C@H]1OC[C@](C)(O)[C@H](NC)[C@H]1O [Netilimicin, netilmicin] | 1 |
| NC[C@@H]1CC[C@@H](N)[C@@H](O[C@H]2[C@H](O)[C@@H](O[C@H]3O[C@H](CO)[C@@H](O)[C@H](N)[C@H]3O)[C@H](N)C[C@@H]2N)O1 [Dibekacin, dibekacin] | 1 |
| NCC[C@H](O)C(=O)N[C@@H]1C[C@H](N)[C@@H](O[C@H]2O[C@H](CN)[C@@H](O)[C@H](O)[C@H]2O)[C@H](O)[C@H]1O[C@H]1O[C@H](CO)[C@@H](O)[C@H](N)[C@H]1O [Amikacin, amikacin] | 2 |
| [H]/N=C(/N)N[C@H]1[C@H](O)[C@@H](O)[C@H](O[C@@H]2O[C@@H](C)[C@](O)(C=O)[C@H]2O[C@@H]2O[C@@H](CO)[C@H](O)[C@@H](O)[C@@H]2NC)[C@@H](N/C(N)=N\[H])[C@@H]1O [Streptomycin, streptomycin] | 4 |
| neomycin | 2 |
| NCC[C@H](O)C(=O)N[C@@H]1C[C@H](N)[C@@H](O[C@H]2O[C@H](CN)CC[C@H]2N)[C@H](O)[C@H]1O[C@H]1O[C@H](CO)[C@@H](O)[C@H](N)[C@H]1O [Arbekacin, arbekacin] | 1 |
